pIC50: −log10 of the molar value. Strand notation (5' to 3'): a small letter for the sugar, then the base; units joined by * are phosphorothioate-linked, units joined directly phosphodiester-linked; [ ] holds rarer units or linkages, { } end groups; capitals alone tell only the bases. k = constrained ethyl (cEt); [5mC] = 5-methylcytosine; d = 2'-deoxy (DNA)
Tested on: Yap1 mRNA
Assay: Dose-dependent inhibition of human Yap1 in A-431 cells (Example 7, 10,000 cells per well, RTS36584)
Assay type: cell-based
Details: free uptake
Procedure: Modified oligonucleotides described in the studies above were tested at various doses in A-431 cells. Cultured A-431 cells at a density of 10,000 cells per well were treated using free uptake with modified oligonucleotides diluted to concentrations described in the tables below. After approximately 48 hours, Yap1 mRNA levels were measured as previously described using the Human Yap1 primer-probe set RTS36584. Yap1 mRNA levels were normalized to total RNA content, as measured by RIBOGREEN®. Results are presented in the tables below as percent control of the amount of Yap1 mRNA relative to untreated control cells (% UTC). IC50s were calculated using a linear regression on a log/linear plot of the data in excel.

[1] = Table 56, 15.6 nM, A-431 cells 10,000 cells per well, 48 hours
[2] = Table 56, 62.5 nM, A-431 cells 10,000 cells per well, 48 hours
[3] = Table 56, 4000.00 nM, A-431 cells 10,000 cells per well, 48 hours
[4] = Table 56, A-431 cells 10,000 cells per well
[5] = Table 57, 15.6 nM, A-431 cells 10,000 cells per well, 48 hours
[6] = Table 57, 62.5 nM, A-431 cells 10,000 cells per well, 48 hours
[7] = Table 57, 4000.00 nM, A-431 cells 10,000 cells per well, 48 hours
[8] = Table 57, A-431 cells 10,000 cells per well
[9] = Table 58, 15.6 nM, A-431 cells 10,000 cells per well, 48 hours
[10] = Table 58, 62.5 nM, A-431 cells 10,000 cells per well, 48 hours
[11] = Table 58, 4000.00 nM, A-431 cells 10,000 cells per well, 48 hours
[12] = Table 58, A-431 cells 10,000 cells per well
[13] = Table 59, 15.6 nM, A-431 cells 10,000 cells per well, 48 hours
[14] = Table 59, 62.5 nM, A-431 cells 10,000 cells per well, 48 hours
[15] = Table 59, 4000.00 nM, A-431 cells 10,000 cells per well, 48 hours
[16] = Table 59, A-431 cells 10,000 cells per well
[17] = 15.6 nM, A-431 cells, 10,000 cells per well, approximately 48 hours
[18] = 62.5 nM, A-431 cells, 10,000 cells per well, approximately 48 hours
[19] = 4000.00 nM, A-431 cells, 10,000 cells per well, approximately 48 hours
[20] = A-431 cells, approximately 48 hours, linear regression on log/linear plot
[21] = Table 60, 15.6 nM, A-431 cells 10,000 cells per well, 48 hours
[22] = Table 60, 62.5 nM, A-431 cells 10,000 cells per well, 48 hours
[23] = Table 60, 4000.00 nM, A-431 cells 10,000 cells per well, 48 hours
[24] = Table 60, A-431 cells 10,000 cells per well

Substance: 958369 (antisense kT*kT*kA*dT*d[5mC]*dT*dA*dG*d[5mC]*dT*dT*dG*dG*kT*kG*kG) [compound 958369]
- Yap1 mRNA, % UTC [1]: 107 % UTC
- Yap1 mRNA, % UTC [2]: 68 % UTC
- Yap1 mRNA, % UTC [3]: 17 % UTC
- pIC50 [4]: 6.77

Substance: 958541 (kG*kT*kA*dT*dT*d[5mC]*dT*dA*dT*d[5mC]*d[5mC]*dA*dG*kG*kG*kT; antisense) [compound 958541]
- Yap1 mRNA, % UTC [5]: 81 % UTC
- Yap1 mRNA, % UTC [6]: 51 % UTC
- Yap1 mRNA, % UTC [7]: 9 % UTC
- pIC50 [8]: 7.00

Substance: 958567 (kT*k[5mC]*kA*dA*d[5mC]*d[5mC]*dT*dA*dT*dG*dA*dA*d[5mC]*kT*kA*kT; antisense) [compound 958567]
- Yap1 mRNA, % UTC [9]: 99 % UTC
- Yap1 mRNA, % UTC [10]: 80 % UTC
- Yap1 mRNA, % UTC [11]: 16 % UTC
- pIC50 [12]: 6.70

Substance: 958356 (antisense kT*kT*kG*dA*dA*dG*dA*dA*dG*dG*dA*dG*dT*k[5mC]*kG*kG) [compound 958356]
- Yap1 mRNA, % UTC [1]: 84 % UTC
- Yap1 mRNA, % UTC [2]: 79 % UTC
- Yap1 mRNA, % UTC [3]: 21 % UTC
- pIC50 [4]: 6.74

Substance: 958737 (kG*kG*kA*dA*dT*dA*d[5mC]*dA*dA*dG*d[5mC]*d[5mC]*d[5mC]*kG*kA*kG; antisense) [compound 958737]
- Yap1 mRNA, % UTC [13]: 104 % UTC
- Yap1 mRNA, % UTC [14]: 92 % UTC
- Yap1 mRNA, % UTC [15]: 29 % UTC
- pIC50 [16]: 6.40

Substance: 958577 (kT*k[5mC]*kT*dG*dT*dG*dG*d[5mC]*dT*dA*d[5mC]*dT*dG*kG*k[5mC]*kA; antisense) [compound 958577]
- Yap1 mRNA, % UTC [9]: 81 % UTC
- Yap1 mRNA, % UTC [10]: 51 % UTC
- Yap1 mRNA, % UTC [11]: 11 % UTC
- pIC50 [12]: 7.00

Substance: 958544 (kG*k[5mC]*kT*dA*dA*dA*dT*dT*d[5mC]*dA*dA*d[5mC]*dT*kA*k[5mC]*k[5mC]; antisense) [compound 958544]
- Yap1 mRNA, % UTC [17]: 65 % UTC
- Yap1 mRNA, % UTC [18]: 77 % UTC
- Yap1 mRNA, % UTC [19]: 17 % UTC
- pIC50 [20]: 7.00

Substance: 958807 (kT*k[5mC]*kA*dT*dT*dG*dT*dA*dG*dT*d[5mC]*dT*dG*kT*k[5mC]*kT; antisense) [compound 958807]
- Yap1 mRNA, % UTC [9]: 92 % UTC
- Yap1 mRNA, % UTC [10]: 65 % UTC
- Yap1 mRNA, % UTC [11]: 10 % UTC
- pIC50 [12]: 7.00

Substance: 958505 (kG*kA*kT*dA*dA*dT*d[5mC]*dG*dA*dG*dA*dT*dT*kT*kA*kA; antisense) [compound 958505]
- Yap1 mRNA, % UTC [17]: 81 % UTC
- Yap1 mRNA, % UTC [18]: 72 % UTC
- Yap1 mRNA, % UTC [19]: 21 % UTC
- pIC50 [20]: 6.70

Substance: 958546 (k[5mC]*kA*kT*dA*d[5mC]*dT*d[5mC]*dT*dA*dG*dT*dT*dA*k[5mC]*kA*kT; antisense) [compound 958546]
- Yap1 mRNA, % UTC [5]: 91 % UTC
- Yap1 mRNA, % UTC [6]: 72 % UTC
- Yap1 mRNA, % UTC [7]: 22 % UTC
- pIC50 [8]: 6.70

Substance: 958572 (kA*kT*kT*dA*dT*dA*dG*dG*d[5mC]*dA*d[5mC]*dT*d[5mC]*k[5mC]*kT*kT; antisense) [compound 958572]
- Yap1 mRNA, % UTC [13]: 83 % UTC
- Yap1 mRNA, % UTC [14]: 77 % UTC
- Yap1 mRNA, % UTC [15]: 22 % UTC
- pIC50 [16]: 6.70

Substance: 958658 (kA*k[5mC]*kA*dG*dT*dA*dT*dA*dA*dT*dA*dT*d[5mC]*k[5mC]*kT*kA; antisense) [compound 958658]
- Yap1 mRNA, % UTC [21]: 90 % UTC
- Yap1 mRNA, % UTC [22]: 88 % UTC
- Yap1 mRNA, % UTC [23]: 29 % UTC
- pIC50 [24]: 6.40

Substance: 958616 (kG*kG*kT*dG*dG*dT*d[5mC]*dT*dT*dG*dT*dT*d[5mC]*kT*kT*kA; antisense) [compound 958616]
- Yap1 mRNA, % UTC [5]: 78 % UTC
- Yap1 mRNA, % UTC [6]: 49 % UTC
- Yap1 mRNA, % UTC [7]: 17 % UTC
- pIC50 [8]: 7.00

Substance: 958588 (kG*kT*kG*dT*dA*d[5mC]*dT*dT*dA*dG*dG*dT*dG*kA*k[5mC]*kT; antisense) [compound 958588]
- Yap1 mRNA, % UTC [21]: 93 % UTC
- Yap1 mRNA, % UTC [22]: 73 % UTC
- Yap1 mRNA, % UTC [23]: 27 % UTC
- pIC50 [24]: 6.70

Source: US11214803B2, “Modulators of YAP1 expression” (Ionis Pharmaceuticals, Inc., priority 2019, dated 2022)
